Experimental data published in US9403801B2 (Calitor Sciences, LLC, priority 2014, dated 2016).

Columns and labels:
[1] = Compound stability in human liver microsomes; assay type: in vitro ADME; settings: for half-life at 5 μM / T1/2: compound 5 μM, NADPH 1.0 mM, 37° C.
Outline: (§1)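 Each compound is tested in duplicate at 5 μM with 0.5 mg/mL microsomal protein plus 1.0 mM NADPH at 37° C, pH 7.4. Depletion over 60 min is followed by LC/MS/MS relative to time zero. CLint is derived by extrapolation.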

[2] = Compound stability in rat liver microsomes; assay type: in vitro ADME
Outline: as §1

[3] = Pharmacokinetics after intravenous and oral administration in rats; assay type: in vivo; settings: for Clearance (CL) after iv dosing / AUC(0-t) / half-life / Vd: dose 1 mg/kg (Ex. 27: 0.72 mg/kg), iv dosing; for F: oral bioavailability; for AUC(0-t) / half-life / Vd: rat, plasma; for Vd: read-out: Vss
Outline: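 Rats were dosed 1 or 2 mg/kg IV or 5 or 10 mg/kg orally, as water solution, HPMC/Tween 80, DMSO/saline, MC suspension or capsule. Plasma was sampled from 0.083 or 0.25 h up to 24 h and quantified by LC/MS/MS in MRM mode with ESI.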

JAK1 (h) = JAK1 (h) (Homo sapiens (Human), UniProt P23458); assay: JAK1 kinase assay (33P-ATP filter binding, Millipore); assay type: biochemical
Sequence of JAK1 (h) (P23458 whole entry): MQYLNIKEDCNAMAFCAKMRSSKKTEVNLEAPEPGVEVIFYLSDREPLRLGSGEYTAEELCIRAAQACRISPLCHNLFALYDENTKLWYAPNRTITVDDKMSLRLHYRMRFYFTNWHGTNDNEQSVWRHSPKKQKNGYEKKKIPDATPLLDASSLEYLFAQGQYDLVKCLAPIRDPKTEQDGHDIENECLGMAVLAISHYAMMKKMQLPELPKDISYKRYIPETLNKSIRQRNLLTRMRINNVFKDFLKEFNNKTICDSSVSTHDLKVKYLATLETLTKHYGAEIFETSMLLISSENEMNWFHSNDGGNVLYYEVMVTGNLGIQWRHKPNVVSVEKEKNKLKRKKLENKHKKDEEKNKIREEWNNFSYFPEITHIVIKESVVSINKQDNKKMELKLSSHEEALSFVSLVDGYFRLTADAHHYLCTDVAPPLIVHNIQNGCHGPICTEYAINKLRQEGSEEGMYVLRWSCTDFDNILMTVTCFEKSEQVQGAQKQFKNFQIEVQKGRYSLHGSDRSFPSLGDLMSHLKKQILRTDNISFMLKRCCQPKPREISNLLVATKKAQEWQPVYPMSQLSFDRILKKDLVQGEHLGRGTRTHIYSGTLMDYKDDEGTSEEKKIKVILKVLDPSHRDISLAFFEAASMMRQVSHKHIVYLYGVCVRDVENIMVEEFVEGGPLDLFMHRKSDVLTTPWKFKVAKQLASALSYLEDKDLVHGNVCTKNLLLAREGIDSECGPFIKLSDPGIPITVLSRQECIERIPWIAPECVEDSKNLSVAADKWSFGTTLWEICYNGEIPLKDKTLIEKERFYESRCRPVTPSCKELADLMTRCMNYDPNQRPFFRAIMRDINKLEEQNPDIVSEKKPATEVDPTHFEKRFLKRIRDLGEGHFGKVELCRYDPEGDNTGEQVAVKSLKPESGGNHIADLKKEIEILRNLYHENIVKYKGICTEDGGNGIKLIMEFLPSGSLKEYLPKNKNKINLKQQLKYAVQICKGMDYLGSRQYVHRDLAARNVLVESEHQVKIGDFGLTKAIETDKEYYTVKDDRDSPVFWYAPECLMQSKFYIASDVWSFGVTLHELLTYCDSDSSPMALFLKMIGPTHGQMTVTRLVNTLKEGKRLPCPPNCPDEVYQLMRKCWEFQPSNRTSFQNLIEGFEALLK
Outline: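 Radiometric assay of γ-33P-ATP incorporation into plate-immobilised MBP; kinase buffer pH 7.6 with 10 mM MgCl2, 10 μM unlabelled ATP typical, enzyme 10 or 20 nM final, 1% DMSO. Reactions ran 1 h at room temperature before scintillation counting. IC50 from 10-point half-log dilution curve, duplicates.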

JAK2 (h) = JAK2 (h) (Homo sapiens (Human), UniProt O60674); assay: JAK2 kinase assay (33P-ATP filter binding, Millipore); assay type: biochemical
Sequence of JAK2 (h) (O60674 whole entry): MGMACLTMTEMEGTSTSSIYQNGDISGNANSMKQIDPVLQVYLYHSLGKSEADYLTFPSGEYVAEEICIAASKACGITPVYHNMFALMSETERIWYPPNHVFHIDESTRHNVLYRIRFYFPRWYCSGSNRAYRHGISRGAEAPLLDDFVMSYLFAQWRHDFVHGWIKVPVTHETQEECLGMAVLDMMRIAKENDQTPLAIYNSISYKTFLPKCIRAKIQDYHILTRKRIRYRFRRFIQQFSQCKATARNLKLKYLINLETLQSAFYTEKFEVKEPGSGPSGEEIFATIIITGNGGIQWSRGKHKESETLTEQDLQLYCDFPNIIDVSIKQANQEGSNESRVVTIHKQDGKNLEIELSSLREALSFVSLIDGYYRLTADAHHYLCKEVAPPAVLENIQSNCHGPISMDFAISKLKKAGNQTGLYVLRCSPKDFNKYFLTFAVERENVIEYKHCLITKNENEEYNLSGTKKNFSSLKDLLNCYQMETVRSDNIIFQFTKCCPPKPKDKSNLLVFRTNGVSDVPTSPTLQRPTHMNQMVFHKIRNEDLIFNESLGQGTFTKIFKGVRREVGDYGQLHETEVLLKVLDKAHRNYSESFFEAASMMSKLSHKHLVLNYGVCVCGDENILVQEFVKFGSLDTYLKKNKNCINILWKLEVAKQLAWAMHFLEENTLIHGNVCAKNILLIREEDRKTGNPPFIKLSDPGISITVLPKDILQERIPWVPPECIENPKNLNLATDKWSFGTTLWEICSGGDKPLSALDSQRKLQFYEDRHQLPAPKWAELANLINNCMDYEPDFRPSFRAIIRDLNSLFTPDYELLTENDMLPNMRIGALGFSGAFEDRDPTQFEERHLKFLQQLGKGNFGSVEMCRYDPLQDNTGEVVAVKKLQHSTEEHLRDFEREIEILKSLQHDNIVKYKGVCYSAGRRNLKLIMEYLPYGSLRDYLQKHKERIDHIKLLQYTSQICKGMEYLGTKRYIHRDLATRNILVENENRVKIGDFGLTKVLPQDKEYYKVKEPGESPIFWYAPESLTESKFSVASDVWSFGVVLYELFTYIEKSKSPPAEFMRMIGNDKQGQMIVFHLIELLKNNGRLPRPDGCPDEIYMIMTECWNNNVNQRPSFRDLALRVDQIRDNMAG
Description: Kinase assays can be performed by measurement of incorporation of γ-^33P ATP into immobilized myelin basic protein (MBP). High binding white 384 well plates (Greiner) are coated with MBP (Sigma #M−1891) by incubation of 60 μL/well of 20 μg/mL MBP in Tris-buffered saline (TBS; 50 mM Tris pH 8.0, 138 mM NaCl, 2.7 mM KCl) for 24 h at 4° C. Plates are washed 3× with 100 μL TBS. Kinase reactions are carried out in a total volume of 34 μL in kinase buffer (5 mM Hepes pH 7.6, 15 mM NaCl, 0.01% bovine gamma globulin (Sigma #I-5506), 10 mM MgCl2, 1 mM DTT, 0.02% TritonX-100). Compound dilutions are performed in DMSO and added to assay wells to a final DMSO concentration of 1%. Each data point is measured in duplicate, and at least two duplicate assays are performed for each individual compound determination. Enzyme is added to final concentrations of 10 nM or 20 nM, for example. A mixture of unlabeled ATP and γ-^33P ATP is added to start the reaction (2×10^6 cpm of γ-^33P ATP per well (3000 Ci/mmole) and 10 μM unlabeled ATP, typically. The reactions are carried out for 1 h at room temperature with shaking. Plates are washed 7× with TBS, followed by the addition of 50 μL/well scintillation fluid (Wallac). Plates are read using a Wallac Trilux counter. This is only one format of such assays; various other formats are possible, as known to one skilled in the art.
The above assay procedure can be used to determine the IC50 for inhibition and/or the inhibition constant, Ki. The IC50 is defined as the concentration of compound required to reduce the enzyme activity by 50% under the condition of the assay. The IC50 value is estimated by preparing a 10 point curve using a 1/2 log dilution series (for example, a typical curve may be prepared using the following compound concentrations: 3 μM, 1 μM, 0.3 μM, 0.1 μM, 0.03 μM, 0.01 μM, 0.003 μM, 0.001 μM, 0.0003 μM and 0 μM).
The kinase assays described herein were performed at Millipore UK Ltd, Dundee Technology Park, Dundee DD2 1SW, UK.

[4] = pH 7.4, Human liver microsomes 0.5 mg protein/mL
[5] = pH 7.4, Human liver microsomes, in vivo CLint extrapolated
[6] = pH 7.4, Rat liver microsomes 0.5 mg protein/mL, compound 5 μM, NADPH 1.0 mM, 37° C.
[7] = pH 7.4, Rat liver microsomes, in vivo CLint extrapolated
[8] = Human liver microsomes 0.5 mg protein/mL
[9] = human, liver microsomes, pH 7.4, Human liver microsomes 0.5 mg protein/mL
[10] = human, liver microsomes, pH 7.4, Human liver microsomes, in vivo CLint extrapolated
[11] = rat, liver microsomes, pH 7.4, Rat liver microsomes 0.5 mg protein/mL, compound 5 μM, NADPH 1.0 mM, 37° C.
[12] = rat, liver microsomes, pH 7.4, Rat liver microsomes, in vivo CLint extrapolated

half-life at 5 μM [1, 4] [min]	CLint scaled at 5 μM [1, 5] [mL/min/kg]	half-life at 5 μM [2, 6] [min]	CLint scaled at 5 μM [2, 7] [mL/min/kg]	Compound	Clearance (CL) after iv dosing [3] [mL/min/kg]	F [3] [%]	AUC(0-t) [3] [ng·h/mL]	half-life [3] [min]	Vd [3] [L/kg]	IC50 (JAK1 (h)) [nM]	IC50 (JAK2 (h)) [nM]	T1/2 [1, 8]	CLint ([1]; Human liver microsomes, in vivo CLint extrapolated) [mL/min/kg]	T1/2 ([2]; Rat liver microsomes 0.5 mg protein/mL, compound 5 μM, NADPH 1.0 mM, 37° C.) [min]	CLint ([2]; Rat liver microsomes, in vivo CLint extrapolated) [mL/min/kg]	half-life at 5 μM [1, 9] [min]	CLint scaled at 5 μM [1, 10] [mL/min/kg]	half-life at 5 μM [2, 11] [min]	CLint scaled at 5 μM [2, 12] [mL/min/kg]
127	13.7	36.9	67.3	Cc1cc(Nc2ncc(Cl)c(NC3CC4CN(C(=O)CC#N)CC4C3)n2)nn1C (centres unmarked) [Ex. 39, 3-(5-((5-chloro-2-((1,5-dimethyl-1H-pyrazol-3-yl)amino)pyrimidin-4-yl)amino)hexahydrocyclopenta[c]pyrrol-2(1H)-yl)-3-oxopropanenitrile]	39.8	83.1	422	41.4	1.19	5	30	–	–	–	–	–	–	–	–
202	8.6	27.2	91.4	CC(=O)N1CC2CC(Nc3nc(Nc4cnn(C)c4)ncc3Cl)CC2C1 (centres unmarked) [Ex. 32, 1-(5-((5-chloro-2-((1-methyl-1H-pyrazol-4-yl)amino)pyrimidin-4-yl)amino)hexahydrocyclopenta[c]pyrrol-2(1H)-yl)ethanone]	62.8	41.3	264	35.4	1.65	3	37	–	–	–	–	–	–	–	–
–	–	–	–	Cn1cc(Nc2ncc(Cl)c(NC3CCC4(CC3)CCN(C(=O)CC#N)C4)n2)cn1 (single isomer, unassigned) [Ex. 14B, 3-(8-((5-chloro-2-((1-methyl-1H-pyrazol-4-yl)amino)pyrimidin-4-yl)amino)-2-azaspiro[4.5]decan-2-yl)-3-oxopropanenitrile]	86.8	12.7	193	29.4	2.41	2	15	171.8 min	10.12	71.63	34.67	–	–	–	–
–	–	–	–	Cn1cnc(Nc2ncc(Cl)c(NC3CCC4(CC3)CCN(C(=O)CC#N)CC4)n2)c1 [Ex. 42, 3-(9-((5-chloro-2-((1-methyl-1H-imidazol-4-yl)amino)pyrimidin-4-yl)amino)-3-azaspiro[5.5]undecan-3-yl)-3-oxopropanenitrile]	–	–	–	–	–	3	12	–	–	–	–	48.9	35.6	31.5	78.8
–	–	–	–	Cc1cc(Nc2ncc(Cl)c(NC3CCC4(CC3)CCN(C(=O)CC#N)CC4)n2)nn1C [Ex. 37, 3-(9-((5-chloro-2-((1,5-dimethyl-1H-pyrazol-3-yl)amino)pyrimidin-4-yl)amino)-3-azaspiro[5.5]undecan-3-yl)-3-oxopropanenitrile]	44.3	31.3	381	71.4	2.97	5	11	–	–	–	–	56.2	30.9	68.9	36.1
6.65	261	2.72	913	Cn1cc(Nc2ncc(Cl)c(NC3CC4CN(CC(F)(F)F)CC4C3)n2)cn1 (centres unmarked) [Ex. 35, 5-chloro-N^2-(1-methyl-1H-pyrazol-4-yl)-N^4-(2-(2,2,2-trifluoroethyl)octahydrocyclopenta[c]pyrrol-5-yl)pyrimidine-2,4-diamine]	–	–	–	–	–	2	8	–	–	–	–	–	–	–	–
–	–	–	–	Cn1cc(Nc2ncc(Cl)c(NC3CCC4(CC3)CCN(C(=O)C(F)(F)F)CC4)n2)cn1 [Ex. 30, 1-(9-((5-chloro-2-((1-methyl-1H-pyrazol-4-yl)amino)pyrimidin-4-yl)amino)-3-azaspiro[5.5]undecan-3-yl)-2,2,2-trifluoroethanone]	45.7	26.1	370	69	4.77	0.9	5	–	–	–	–	38	45.7	24.2	103
158	11	12.2	204	Cn1cc(Nc2ncc(Cl)c(NC3CCC4CN(C(=O)CC#N)CC4C3)n2)cn1 (centres unmarked) [Ex. 22, 3-(5-((5-chloro-2-((1-methyl-1H-pyrazol-4-yl)amino)pyrimidin-4-yl)amino)hexahydro-1H-isoindol-2(3H)-yl)-3-oxopropanenitrile]	94.8	22.6	176	25.8	2.02	2	6	–	–	–	–	–	–	–	–
–	–	–	–	Cn1cc(Nc2ncc(Cl)c(NC3CCC4(CC3)CCN(c3ccc(C#N)cn3)CC4)n2)cn1 [Ex. 27, 6-(9-((5-chloro-2-((1-methyl-1H-pyrazol-4-yl)amino)pyrimidin-4-yl)amino)-3-azaspiro[5.5]undecan-3-yl)nicotinonitrile]	27.8	15.0	452	46.2	1.74	4	23	–	–	–	–	21.8	79.7	9.2	270
–	–	–	–	Cn1cc(Nc2ncc(Cl)c(NC3CCC4(CC3)CCN(S(C)(=O)=O)CC4)n2)cn1 [Ex. 29, 5-chloro-N^2-(1-methyl-1H-pyrazol-4-yl)-N^4-(3-(methylsulfonyl)-3-azaspiro[5.5]undecan-9-yl)pyrimidine-2,4-diamine]	45.7	19.1	382	49.2	2.05	2	5	–	–	–	–	83.8	20.8	40.3	61.6
–	–	–	–	Cc1cnc(Nc2cnn(C)c2)nc1NC1CCC2(CC1)CCN(C(=O)CC#N)CC2 [Ex. 25, 3-(9-((5-methyl-2-((1-methyl-1H-pyrazol-4-yl)amino)pyrimidin-4-yl)amino)-3-azaspiro[5.5]undecan-3-yl)-3-oxopropanenitrile]	–	–	–	–	–	6	86	–	–	–	–	522	3.33	16.8	148

Compound	half-life at 5 μM [1, 4] [min]	CLint scaled at 5 μM [1, 5] [mL/min/kg]	half-life at 5 μM [2, 6] [min]	CLint scaled at 5 μM [2, 7] [mL/min/kg]	Clearance (CL) after iv dosing [3] [mL/min/kg]	F [3] [%]	AUC(0-t) [3] [ng·h/mL]	half-life [3] [min]	Vd [3] [L/kg]	IC50 (JAK1 (h)) [nM]	IC50 (JAK2 (h)) [nM]	T1/2 [1, 8]	CLint ([1]; Human liver microsomes, in vivo CLint extrapolated) [mL/min/kg]	T1/2 ([2]; Rat liver microsomes 0.5 mg protein/mL, compound 5 μM, NADPH 1.0 mM, 37° C.) [min]	CLint ([2]; Rat liver microsomes, in vivo CLint extrapolated) [mL/min/kg]	half-life at 5 μM [1, 9] [min]	CLint scaled at 5 μM [1, 10] [mL/min/kg]	half-life at 5 μM [2, 11] [min]	CLint scaled at 5 μM [2, 12] [mL/min/kg]
Cn1cc(Nc2ncc(Cl)c(NC3CC4CNCC4C3)n2)cn1 (centres unmarked) [Ex. 11, 5-chloro-N^2-(1-methyl-1H-pyrazol-4-yl)-N^4-(octahydrocyclopenta[c]pyrrol-5-yl)pyrimidine-2,4-diamine]	–	–	17.7	140	105	18.13	146	151	18.6	27	176	∞	–	–	–	–	–	–	–
